Results on 4 compounds are retold here after the NIST ThermoML archive (doi:10.1016/j.jct.2006.05.004).

The nature of data set [1]: refractive index (Na D-line) (dimensionless). The settings on record: 298.15 K; 101.33 kPa; Liquid; Standard Abbe refractometry.
For data set [2] the following is noted: 298.15 K; 101.33 kPa; Liquid.

± gives the expanded uncertainty stated by the source.

As to `COC(C)=O` [methyl ethanoate], the refractive index in data set [1] stood at 1.3585 ± 0.0008. In addition, the mass density in data set [2] came to 926.73 ± 0.84 kg/m3.

As for `COC=O` [methyl methanoate], the refractive index in data set [1] came out at 1.3415 ± 0.0008. Moreover, the mass density in data set [2] is reported as 966.83 ± 0.7 kg/m3.

On to `CCCCC(=O)OC` [methyl pentanoate], for which the refractive index in data set [1] is on record as 1.395 ± 0.0008. In addition, the mass density in data set [2] came to 884.59 ± 1 kg/m3.

As for `CCC(=O)OC` [methyl propanoate], the refractive index in data set [1] is recorded as 1.374 ± 0.0008. Moreover, the mass density in data set [2] was 910.18 ± 0.9 kg/m3.
